Where a name gives a salt, the structure may show the parent alone. Read-outs that look alike come from different tables or passages of the source.
What was measured:
Type in all cases: biochemical
[1] = target: T1, recombinant PRL-3 (Homo sapiens, UniProt O75365); assay: In vitro phosphatase assay (DiFMUP hydrolysis), PRL-3; note: test concentration or dose not given here
T1 construct: 6xHis (N, cleaved yes); made in house; host or cells: E. coli One Shot BL21 Star

[2] = target: T2, recombinant PRL-2 (Homo sapiens, UniProt Q12974); assay: In vitro phosphatase assay (DiFMUP hydrolysis), PRL-2;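 note: PRL-2 activity read as DiFMUP hydrolysis after 20 min at room temperature with drug, enzyme first pre-reduced at 4 °C for 20 min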
T2 construct: 6xHis (N, cleaved yes); made in house; host or cells: E. coli One Shot BL21 Star
T2 sequence (Q12974 1-167): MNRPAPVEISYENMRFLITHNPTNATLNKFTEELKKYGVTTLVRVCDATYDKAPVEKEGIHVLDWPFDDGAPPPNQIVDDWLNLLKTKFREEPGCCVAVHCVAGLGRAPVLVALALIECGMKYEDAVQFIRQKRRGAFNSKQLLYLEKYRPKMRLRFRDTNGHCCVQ

[3] = target: T3, recombinant PRL-1 (Homo sapiens, UniProt Q93096); assay: In vitro phosphatase assay (DiFMUP hydrolysis), PRL-1; note: test concentration or dose not given here
T3 construct: 6xHis (N, cleaved yes); made in house; host or cells: E. coli One Shot BL21 Star
T3 sequence (Q93096 1-173): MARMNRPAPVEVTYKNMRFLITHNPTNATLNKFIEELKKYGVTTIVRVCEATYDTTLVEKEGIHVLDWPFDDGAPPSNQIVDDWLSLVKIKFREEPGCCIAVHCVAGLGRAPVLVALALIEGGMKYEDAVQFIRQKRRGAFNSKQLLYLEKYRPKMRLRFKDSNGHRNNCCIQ

[4] = FDA-approved drug screen, compared to DMSO

T1 sequence (O75365 whole entry): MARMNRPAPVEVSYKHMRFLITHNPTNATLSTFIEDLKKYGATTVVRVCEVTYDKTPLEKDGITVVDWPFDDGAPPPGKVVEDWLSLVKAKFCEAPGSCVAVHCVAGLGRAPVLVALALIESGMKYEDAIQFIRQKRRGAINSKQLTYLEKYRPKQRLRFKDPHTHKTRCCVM

| SMILES | % Phosphatase Activity (compared to DMSO) PRL-3 [1, 4] [%] | % Phosphatase Activity (compared to DMSO) PRL-2 [2, 4] [%] | % Phosphatase Activity (compared to DMSO) PRL-1 [3, 4] [%] | % Phosphatase Activity (compared to DMSO) PRL-3 [1] [%] | % Phosphatase Activity (compared to DMSO) PRL-2 [2] [%] | % Phosphatase Activity (compared to DMSO) PRL-1 [3] [%] |
| --- | --- | --- | --- | --- | --- | --- |
| CCCN(CCC)S(=O)(=O)c1ccc(C(=O)O)cc1 [Probenecid] | 84 | 114 | 110 | – | – | – |
| CC(C)(Sc1cc(C(C)(C)C)c(O)c(C(C)(C)C)c1)Sc1cc(C(C)(C)C)c(O)c(C(C)(C)C)c1 [Probucol] | 78 | 122 | 100 | – | – | – |
| CCN(CC)CCNC(=O)c1ccc(N)cc1 [Procainamide HCl] | 75 | 127 | 94 | – | – | – |
| CCN(CC)CCOC(=O)c1ccc(N)cc1 [Procaine HCl] | 92 | 112 | 108 | – | – | – |
| CCN(CC)CCOC(=O)c1ccc(N)cc1 [Procaine] | 80 | 94 | 102 | – | – | – |
| CNNCc1ccc(C(=O)NC(C)C)cc1 [Procarbazine HCl] | 87 | 90 | 103 | – | – | – |
| CN1CCN(CCCN2c3ccccc3Sc3ccc(Cl)cc32)CC1.O=C(O)/C=C\C(=O)O.O=C(O)/C=C\C(=O)O [Prochlorperazine dimaleate salt] | 91 | 108 | 93 | – | – | – |
| O=C(O)CCc1nc2ccccc2[nH]1 [Procodazole] | 86 | 85 | 98 | – | – | – |
| OC(CCN1CCCC1)(c1ccccc1)C1CCCCC1 (stereo not drawn) [Procyclidine HCl] | 95 | 118 | 112 | – | – | – |
| Nc1ccc2cc3ccc(N)cc3nc2c1 [Proflavine Hemisulfate] | 100 | 61 | 81 | – | – | – |
| CC(=O)[C@H]1CC[C@H]2[C@@H]3CCC4=CC(=O)CC[C@]4(C)[C@H]3CC[C@]12C [Progesterone] | 76 | 96 | 90 | – | – | – |
| CC(CN1c2ccccc2Sc2ccccc21)N(C)C.Cl (stereo not drawn) [Promethazine HCl] | 77 | 106 | 99 | – | – | – |
| CCCNCC(O)COc1ccccc1C(=O)CCc1ccccc1 (stereo not drawn) [Propafenone HCl] | 79 | 114 | 98 | – | – | – |
| CCCOc1ccc(C(=O)OCCN(CC)CC)cc1N [Proparacaine HCl] | 96 | 108 | 78 | – | – | – |
| CC(C)NCC(O)COc1cccc2ccccc12.Cl (stereo not drawn) [Propranolol HCl] | 70 | 128 | 95 | – | – | – |
| CCCc1cc(=O)[nH]c(=S)[nH]1 [Propylthiouracil] | – | – | – | 91 | 93 | 94 |
| CCCc1cc(C(N)=S)ccn1 [Protionamide] | 97 | 101 | 100 | – | – | – |
| NC(=O)[C@@H]1CCCN1C(=O)[C@H](Cc1cnc[nH]1)NC(=O)[C@@H]1CCC(=O)N1 [Protirelin] | 106 | 91 | 97 | – | – | – |

| SMILES | % Phosphatase Activity (compared to DMSO) PRL-3 [1, 4] [%] | % Phosphatase Activity (compared to DMSO) PRL-2 [2, 4] [%] | % Phosphatase Activity (compared to DMSO) PRL-1 [3, 4] [%] | % Phosphatase Activity (compared to DMSO) PRL-3 [1] [%] | % Phosphatase Activity (compared to DMSO) PRL-2 [2] [%] | % Phosphatase Activity (compared to DMSO) PRL-1 [3] [%] |
| --- | --- | --- | --- | --- | --- | --- |
| COCCCN1CCC(NC(=O)c2cc(Cl)c(N)c3c2OCC3)CC1.O=C(O)CCC(=O)O [Prucalopride Succinat] | 85 | 77 | 76 | – | – | – |
| COCCCN1CCC(NC(=O)c2cc(Cl)c(N)c3c2OCC3)CC1 [Prucalopride] | 85 | 113 | 97 | – | – | – |
| COc1ccc(C[C@H](N)C(=O)N[C@H]2[C@@H](O)[C@H](n3cnc4c(N(C)C)ncnc43)O[C@@H]2CO)cc1.Cl.Cl [Puromycin 2HCl] | 113 | 101 | 106 | – | – | – |
| NC(=O)c1cnccn1 [Pyrazinamide] | 95 | 93 | 85 | – | – | – |
| CN(C)C(=O)Oc1ccc[n+](C)c1 [Pyridostigmine Bromide] | 77 | 109 | 106 | – | – | – |
| Cc1ncc(CO)c(CO)c1O [Pyridoxine HCl] | 91 | 102 | 100 | – | – | – |
| COc1ccc(CN(CCN(C)C)c2ccccn2)cc1 [Pyrilamine Maleate] | 98 | 111 | 94 | – | – | – |
| OCCOCCN1CCN(C2=Nc3ccccc3Sc3ccccc32)CC1 [Quetiapine Fumarate] | – | – | – | 93 | 87 | 80 |
| CCOC(=O)[C@H](CCc1ccccc1)N[C@@H](C)C(=O)N1Cc2ccccc2C[C@H]1C(=O)O [Quinapril HCl] | 80 | 106 | 92 | – | – | – |
| Cn1cc(CNCC2CCN(c3ncc(C(=O)NO)cn3)CC2)c2ccccc21 [Quisinostat (JNJ-26481585)] | 92 | 109 | 121 | – | – | – |
| CC(C)(C)c1cc(NC(=O)Nc2ccc(-c3cn4c(n3)sc3cc(OCCN5CCOCC5)ccc34)cc2)no1 [Quizartinib (AC220)] | 97 | 114 | 112 | – | – | – |
| COc1cc(Nc2ncc(F)c(Nc3ccc4c(n3)N(COP(=O)([O-])[O-])C(=O)C(C)(C)O4)n2)cc(OC)c1OC.[Na+].[Na+] [R788 (Fostamatinib) Disodium] | 88 | 119 | 90 | – | – | – |
| CC(=O)SCC(Cc1ccccc1)C(=O)NCC(=O)OCc1ccccc1 (stereo not drawn) [Racecadotril] | 76 | 99 | 95 | – | – | – |
| Cc1cn(-c2cc(NC(=O)c3ccc(C)c(Nc4nccc(-c5cnccn5)n4)c3)cc(C(F)(F)F)c2)cn1 [Radotinib] | 89 | 83 | 96 | – | – | – |
| O=C(c1ccc(OCCN2CCCCC2)cc1)c1c(-c2ccc(O)cc2)sc2cc(O)ccc12 [Raloxifene HCl] | 74 | 96 | 95 | – | – | – |
| Cc1nnc(C(=O)NC(C)(C)c2nc(C(=O)NCc3ccc(F)cc3)c(O)c(=O)n2C)o1 [Raltegravir (MK-0518)] | 90 | 105 | 96 | – | – | – |
| Cc1nc2ccc(CN(C)c3ccc(C(=O)N[C@@H](CCC(=O)O)C(=O)O)s3)cc2c(=O)[nH]1 [Raltitrexed] | 71 | 71 | 80 | – | – | – |
